Here are results for twelve molecules from US12404244B2, “Pan-KIT kinase inhibitor having quinoline structure and application thereof” (Tarapeutics Science Inc., priority 2018, dated 2025).

The structures appear in SMILES notation. Like-named read-outs stand apart in the source and are kept apart here. Some results are limits rather than exact numbers.

Common to all, as to assay type: cell-based, mouse
Assay [1] relates to TEL-KIT-BaF3 (stably expressing KIT wild-type kinase). Description: Proliferation of TEL-KIT-BaF3 cells (CCK-8). The note with it: for GI50: Mus musculus, read-out: GI50 TEL-KIT-BaF3. An excerpt: (§1) Compounds as provided herein were further evaluated for their inhibitory effects on proliferation of cancer cells by testing their effects on growth of cancer cells. In this example the following cells were used: primary mouse B cells BaF3 (purchased from ATCC), GIST-T1 cells of the human gastrointestinal stromal tumor cell line (expressing wild-type KIT gene) (purchased from Cosmo Bio Co., Ltd. (Japan)). The present lab further constructed and used the following: mouse Tel-Kit-BaF3 (stably expressing KIT wild-type kinase), mouse Tel-Kit/T670I-BaF3 (stably expressing KIT T670I mutant kinase), mouse Tel-Kit/V559A-BaF3 (stably expressing KIT V559A mutant kinase), mouse Tel-Kit/V559D-BaF3 (stably expressing KIT V559D mutant kinase), mouse Tel-Kit/V559G-BaF3 (stably expressing KIT V559G mutant kinase), mouse Tel-Kit/V560D-BaF3 (stably expressing KIT V560D mutant kinase), mouse Tel-Kit/L576P-BaF3 (stably expressing KIT L576P mutant kinase), mouse Tel-Kit/V654A-BaF3 (stably expressing KIT V654A mutant kinase), mouse Tel-Kit/V654A/V559D-BaF3 (stably expressing KIT V654A V559D mutant kinase), mouse Tel-Kit/T670E-BaF3 (stably expressing KIT T670E mutant kinase), mouse Tel-Kit/T670I/V559D-BaF3 (stably expressing KIT T670I V559D mutant kinase), mouse Tel-Kit/S709F-BaF3 (stably expressing KIT S709F mutant kinase), mouse Tel-Kit/D816E-BaF3 (stably expressing KIT D816E mutant kinase), mouse Tel-Kit/D816H-BaF3 (stably expressing KIT D816H mutant kinase), mouse Tel-Kit/D820E-BaF3 (stably expressing KIT D820E mutant kinase), mouse Tel-Kit/D820G-BaF3 (stably expressing KIT D820G mutant kinase), mouse Tel-Kit/D820Y-BaF3 (stably expressing KIT D820Y mutant kinase), mouse Tel-Kit/N822K-BaF3 (stably expressing KIT N822K mutant kinase), mouse Tel-Kit/Y823D-BaF3 (stably expressing KIT Y823D mutant kinase), mouse Tel-Kit/A829P-BaF3 (stably expressing KIT A829P mutant kinase), GIST-T1-T670I cells of the human gastrointestinal stromal tumor cell line (expressing KIT-T670I mutant gene). The above cell lines were constructed by: amplifying respectively the sequences of human KIT and various mutant kinase regions of KIT via PCR, inserting the fragments respectively into MSCV-Puro vectors having a N-terminal TEL fragment and/or a NPM fragment and/or a TPR fragment (purchased from Clontech), transfecting mouse BaF3 cells with the vectors by means of retrovirus to obtain stably transfected cells, removing the growth factor IL-3, and thereby eventually obtaining cell lines that depend on the transferred protein KIT or various mutants of KIT. The GIST-T1-T670I (expressing C-KIT-T670I mutant gene) cell line was constructed by our laboratory as follows: designing sgRNA that targeted a region around T670 of the KIT gene with CRISPR Design Tool (website: crispr.mit.edu, Zhang Feng Lab), cloning it into pSpCas9(BB)-2A-Puro vector; co-transfecting cells with the resultant vector and a single-stranded oligonucleotide having T670I site mutation that is near to T670, subjecting the resultant to antibiotics screening, followed by dilution, and monocellular culture in a 96-well plate; validating the site T670 of the cells by sequence detection via Sanger sequencing.
(§2) The cells after incubation were detected using CCK-8 (purchased from MedChem Express, Shanghai, China) cell viability assay kit (CCK-8 may be reduced by dehydrogenase in living cells to a highly water-soluble yellow formazan product, and the amount of the resultant formazan is proportional to the number of living cells), the number of living cells were quantified with a microplate reader, and GI50 of the compounds and the control compounds were calculated (the results shown in Table 2 and Table 3).

The next assay relates to TEL-KIT/T670I-BaF3. Description: Proliferation of TEL-KIT/T670I-BaF3 cells (CCK-8). The settings on record: for GI50: Mus musculus, read-out: GI50 TEL-KIT/T670I-BaF3.
Text: as §1

The test system of the next assay is BaF3. Description: Proliferation of parental BaF3 cells (CCK-8). The settings on record: for GI50: Mus musculus, read-out: GI50 BaF3.
Text: as §1, §2

Setting [2] is: BaF3 parent cells, 72 hours, CCK-8.

For `COc1cc2nccc(Oc3ccc(NC(=O)Cc4ccc(Cl)c(C(F)(F)F)c4)cc3Cl)c2cc1OC` [Example 38, N-(3-chloro-4-((6,7-dimethoxyquinolin-4-yl)oxy)phenyl)-2-(4-chloro-3-(trifluoromethyl)phenyl)acetamide], the GI50 in assay [1] (72 h) was determined as 78 nM; in the assay on TEL-KIT/T670I-BaF3 (72 h), 56 nM; in the assay with BaF3 (BaF3, 72 h), 9450 nM.
For the molecule `COc1cc2nccc(Oc3ccc(NC(=O)Cc4ccc(F)c(C(F)(F)F)c4)cc3)c2cc1OC` [Example 13, N-(4-((6,7-dimethoxyquinolin-4-yl)oxy)phenyl)-2-(4-fluoro-3-(trifluoromethyl)phenyl)acetamide], the GI50 in assay [1] (72 h) was found to be 24 nM; with TEL-KIT/T670I-BaF3 (72 h), 13 nM; with BaF3 (BaF3, 72 h), 1030 nM.
As for `COc1cc2nccc(Oc3ccc(C(=O)NCc4cccc(C(F)(F)F)c4)cc3)c2cc1OC` [Comparative Example 3, N-(3-(trifluoromethyl)benzyl)-4-((6,7-dimethoxyquinolin-4-yl)oxy)benzamide, reference compound], in assay [1], the “inhibitory effect against wild-type KIT” value is reported as “substantially vanished”. Also, the GI50 in assay [1] (KIT wild-type, 72 hours, CCK-8) is 2350 nM; in the assay with TEL-KIT/T670I-BaF3 (72 hours, CCK-8) it was 4610 nM; in the assay on BaF3 (setting [2]), not below 10000 nM. For the same molecule, the “inhibitory effect against mutant KIT-T670I” value in the assay on TEL-KIT/T670I-BaF3 is listed as “substantially vanished”.
`COc1cc2nccc(Oc3ccc(NC(=O)NCCCc4cccc(F)c4)cc3)c2cc1OC` [Example 31, 1-(4-((6,7-dimethoxyquinolin-4-yl)oxy)phenyl)-3-(3-(3-fluorophenyl)propyl)urea]: the GI50 was determined as 97 nM in assay [1] (KIT wild-type, 72 hours, CCK-8); 16 nM in the assay with TEL-KIT/T670I-BaF3 (72 hours, CCK-8); 2480 nM in the assay on BaF3 (setting [2]).
In the same order, the values of `COc1cc2nccc(Oc3ccc(NC(=O)NCCCc4ccccc4)cc3)c2cc1OC` [Example 30, 1-(4-((6,7-dimethoxyquinolin-4-yl)oxy)phenyl)-3-(3-phenylpropyl)urea] are 110 nM, 10 nM and 2910 nM.
With `COc1cc2nccc(Oc3ccc(NC(=O)Cc4cccc(C(F)(F)F)c4)cc3)c2cc1OC` [Example 8, N-(4-((6,7-dimethoxyquinolin-4-yl)oxy)phenyl)-2-(3-(trifluoromethyl)phenyl)acetamide], the GI50 in assay [1] (72 h) amounted to 20 nM; with TEL-KIT/T670I-BaF3 (72 h), 1 nM; in the assay with BaF3 (BaF3, 72 h), 1890 nM.
As for `COc1cc2nccc(Oc3ccc(NC(=O)NCCCc4ccc(F)cc4)cc3)c2cc1OC` [Example 32, 1-(4-((6,7-dimethoxyquinolin-4-yl)oxy)phenyl)-3-(3-(4-fluorophenyl)propyl)urea], the GI50 was found to be 68 nM in assay [1] (KIT wild-type, 72 hours, CCK-8); 15 nM with TEL-KIT/T670I-BaF3 (72 hours, CCK-8); 3850 nM in the assay with BaF3 (setting [2]).
Turning to `COc1cc2nccc(Oc3ccc(NC(=O)Cc4ccc(C)c(C)c4)cc3)c2cc1OC` [Example 11, N-(4-((6,7-dimethoxyquinolin-4-yl)oxy)phenyl)-2-(3,4-dimethylphenyl)acetamide], the GI50 in assay [1] (72 h) is 27 nM; in the assay on TEL-KIT/T670I-BaF3 (72 h) it was 15 nM; with BaF3 (BaF3, 72 h) it was 6420 nM.
For `COc1cc2nccc(Oc3ccc(NC(=O)Cc4ccc(C(F)(F)F)cc4)cc3)c2cc1OC` [Example 9, N-(4-((6,7-dimethoxyquinolin-4-yl)oxy)phenyl)-2-(4-(trifluoromethyl)phenyl)acetamide], the GI50 in assay [1] (72 h) was found to be 22 nM; in the assay on TEL-KIT/T670I-BaF3 (72 h), 11 nM; in the assay with BaF3 (BaF3, 72 h), 2160 nM.
On to `COc1cc2nccc(Oc3ccc(NC(=O)Cc4ccccc4)cn3)c2cc1OC` [Comparative Example 1, N-(6-((6,7-dimethoxyquinolin-4-yl)oxy)pyridin-3-yl)-2-phenylacetamide, reference compound], for which, in assay [1], the “inhibitory effect against wild-type KIT” value is given as “no significant inhibitory effects”. For the same molecule, the GI50 is more than 10000 nM in assay [1] (72 h); more than 10000 nM with TEL-KIT/T670I-BaF3 (72 h); more than 10000 nM with BaF3 (BaF3, 72 h). Moreover, the “inhibitory effect against mutant KIT-T670I” value with TEL-KIT/T670I-BaF3 is “no significant inhibitory effects”.
For `COc1cccc(CC(=O)Nc2ccc(Oc3ncnc4cc(OC)c(OC)cc34)cc2)c1` [Comparative Example 4, N-(4-((6,7-dimethoxyquinazolin-4-yl)oxy)phenyl)-2-(3-methoxyphenyl)acetamide, reference compound], the “inhibitory effect against wild-type KIT” value in assay [1] is reported as “certain inhibitory activity but lower than that of the present invention compounds”. Besides, the GI50 in assay [1] (KIT wild-type, 72 hours, CCK-8) is 183 nM; in the assay with TEL-KIT/T670I-BaF3 (72 hours, CCK-8), 844 nM; in the assay with BaF3 (setting [2]), 3120 nM. The “inhibitory effect against mutant KIT-T670I” value in the assay on TEL-KIT/T670I-BaF3 is “certain inhibitory activity but lower than that of the present invention compounds”. In addition, the “selectivity against BaF3” value in the assay on BaF3 (KIT and KIT-T670I relative to parent BaF3 cells) is on record as “weaker selectivity against BaF3”.
For the molecule `COc1cc2nccc(Oc3ccc(NC(=O)Cc4ccc(Cl)c(C(F)(F)F)c4)c(F)c3)c2cc1OC` [Example 24, N-(2-fluoro-4-((6,7-dimethoxyquinolin-4-yl)oxy)phenyl)-2-(4-chloro-3-(trifluoromethyl)phenyl)acetamide], the GI50 was 49 nM in assay [1] (72 h); 18 nM with TEL-KIT/T670I-BaF3 (72 h); 3210 nM in the assay with BaF3 (BaF3, 72 h).
